# Results reported in publication PMC12024213, “Mechanism Insight of Cell Death Signaling by Thymol Derivatives on Trypanosomatidae Protozoan Parasites” (Antibiotics, 2025).
# Read-outs that look alike come from different tables or passages of the source.
# What was measured:
# [1] = alamarBlue assay on L. amazonensis promastigotes; format: cell-based, Leishmania amazonensis; conditions: mouse; CC50 J774.A1 / IC50 L. amazonensis promastigotes; read-out: Selectivity Leishmania SI (CC50/IC50)
# Method: (§1) The assay was conducted using the alamarBlue® method as previously described. Briefly, promastigotes of L. amazonensis were grown at 26 °C in Schneider’s medium (US Biological, Life sciences) and supplemented with 10% heat-inactivated fetal bovine serum and 0.04% of sodium bicarbonate. In a 96-well microtiter plates (Corning™, Corning, NY, USA) a serial dilutions of thymol derivatives were first prepared, and later, 10^6 parasites/mL were added into each well. Subsequently, 10% of alamarBlue® was added to the entire plate. The plates were incubated for 72 h at 26 °C.
# (§2) Cytotoxicity effect of the tested derivatives was conducted using macrophages of the murine cell line J774.A1 (American Type Culture Collection #TIB-67, city, country), as previously described. The cells were maintained in DMEM at 37 °C in a 5% CO2 humidified incubator. All the plates containing alamarBlue® were analyzed using a plate reader EnSpire Multimode Plate Reader® at excitation and emission wavelengths of 570 and 585 nm, respectively (PerkinElmer, ThermoFisher Scientific, Madrid, Spain). The IC50 (concentrations able to inhibit 50% of parasites), IC90 (concentrations able to inhibit 90% of parasites), and CC50 (concentration able to inhibit 50% of murine macrophages) values were determined for each compound by nonlinear regression using GraphPad software.
# [2] = system: L. amazonensis promastigotes; assay: alamarBlue assay on L. amazonensis promastigotes; format: cell-based, Leishmania amazonensis; conditions: mean ± SD, triplicates
# Method: as §1, §2
# [3] = alamarBlue assay on T. cruzi epimastigotes; format: cell-based, Trypanosoma cruzi; conditions: mouse; CC50 J774.A1 / IC50 T. cruzi epimastigotes; read-out: Selectivity Trypanosoma SI (CC50/IC50)
# Method: (§3) In a 96-well plate, a serial dilution of the tested derivatives was performed in liver infusion tryptose medium supplemented with 10% heat inactivated fetal bovine serum. Later, 100 µL of 5 × 10^5 cells/mL of epimastigotes was added to each well. Afterwards, 20 µL of alamarBlue® was added to each well, and the plate was maintained at 26 °C for 72 h.
# as §2
# T. cruzi epimastigotes = assay: alamarBlue assay on T. cruzi epimastigotes; format: cell-based, Trypanosoma cruzi; conditions: mean ± SD, triplicates
# Method: as §3, §2
# [4] = Cytotoxicity assay on murine macrophages (alamarBlue); format: cell-based; conditions: mouse, mean ± SD
# Method: as §2
# [5] = Intramacrophagic stage assay, L. amazonensis in J774.A1 macrophages; format: cell-based, Leishmania amazonensis; conditions: mouse; CC50 J774.A1 / IC50 intracellular L. amazonensis; read-out: Selectivity Leishmania SI (CC50/IC50)
# Method: (§4) Briefly, in a 96-well plate, macrophages from the J774.A1 cell line were seeded at a final concentration of 2 × 10^5 cells/mL in Dulbecco’s Modified Eagle Medium (DMEM) and maintained at 37 °C in a 5% CO2 atmosphere until fully adhesion. […] After infection, plates were washed using DMEM to eliminate external parasites. Subsequently, infected macrophages were treated with different concentrations of active compounds for 24 h. Later, macrophages were lysed using 30 μL of medium, Schneider for Leishmania, and in liver infusion tryptose for Trypanosoma, containing 0.05% of sodium dodecyl sulfate (SDS) for 30 s under agitation. Afterwards, 170 μL of the appropriated medium was derivatives added to each well to give a final volume of 200 μL. Subsequently, 10% of alamarBlue® was added into each well and the plate was incubated at 26 °C for 72 h. Cytotoxicity effect of the tested derivatives was conducted using macrophages of the murine cell line J774.A1 (American Type Culture Collection #TIB-67, city, country), as previously described. The cells were maintained in DMEM at 37 °C in a 5% CO2 humidified incubator.
# [6] = system: intramacrophage L. amazonensis; assay: as above; format: cell-based, Leishmania amazonensis; conditions: Leishmania amazonensis; intramacrophage stage in J774.A1, 24 h treatment; mean ± SD; read-out: L. amazonensis Intracellular IC50
# Method: as §4
# [7] = Intramacrophagic stage assay, T. cruzi in J774.A1 macrophages; format: cell-based, Trypanosoma cruzi; conditions: mouse; CC50 J774.A1 / IC50 intracellular T. cruzi; read-out: Selectivity Trypanosoma SI (CC50/IC50)
# Method: (§5) Briefly, in a 96-well plate, macrophages from the J774.A1 cell line were seeded at a final concentration of 2 × 10^5 cells/mL in Dulbecco’s Modified Eagle Medium (DMEM) and maintained at 37 °C in a 5% CO2 atmosphere until fully adhesion. Cells were infected either with L. amazonensis promastigotes (at a ratio of 1:10) or epimastigotes of T. cruzi (at a ratio of 1:7) (macrophage: parasite) and incubated at 37 °C in 5% CO2 for 24 h for Leishmania and 48 h for Trypanosoma. After infection, plates were washed using DMEM to eliminate external parasites. Subsequently, infected macrophages were treated with different concentrations of active compounds for 24 h. Later, macrophages were lysed using 30 μL of medium, Schneider for Leishmania, and in liver infusion tryptose for Trypanosoma, containing 0.05% of sodium dodecyl sulfate (SDS) for 30 s under agitation. Afterwards, 170 μL of the appropriated medium was derivatives added to each well to give a final volume of 200 μL. Subsequently, 10% of alamarBlue® was added into each well and the plate was incubated at 26 °C for 72 h.
# as §2
# intramacrophage T. cruzi = assay: as above; format: cell-based, Trypanosoma cruzi; conditions: Trypanosoma cruzi; intramacrophage stage in J774.A1, 24 h treatment; mean ± SD; read-out: T. cruzi Intracellular IC50
# Method: as §5, §2
# [8] = system: promastigote stage of L. major; set-up: method as in PMID 37595813; conditions: cited from earlier work
# [9] = system: promastigote stage of L. tropica; set-up: method as in PMID 37595813; conditions: cited from earlier work
# L. infantum = system: L. infantum; set-up: method as in PMID 31151304; conditions: cited from earlier work
# L. chagasi = system: L. chagasi; set-up: method as in PMID 20428679; conditions: cited from earlier work
# L. amazonensis = system: L. amazonensis; set-up: method as in PMID 28509873; conditions: cited from earlier work
# [10] = system: promastigote stage of L. infantum and L. chagasi; set-up: method as in PMID 25281268; conditions: cited from earlier work
# [11] = system: amastigote stage of L. infantum and L. chagasi; set-up: method as in PMID 25281268; conditions: cited from earlier work
# [12] = Leishmania amazonensis, 72 h, promastigotes, alamarBlue, 72 h at 26 °C, read-out: L. amazonensis Promastigote IC50
# [13] = Trypanosoma cruzi, 72 h, epimastigotes, alamarBlue, 72 h at 26 °C, read-out: T. cruzi Epimastigote IC50
# [14] = epimastigotes, alamarBlue, 72 h at 26 °C, read-out: T. cruzi Epimastigote IC50
SMILES,selectivity ratio [1],"IC50 [2, 12] [µM]",selectivity ratio [3],IC50 (T. cruzi epimastigotes; [13]) [µM],CC50 ([4]; J774.A1 macrophage cell line) [µM],other results
"Cc1ccc(C(C)C)c(OC(=O)c2ccc([N+](=O)[O-])cc2)c1 [Derivative 8, thymyl-4-nitrobenzoate]",> 3.9,76.4 ± 6.2,> 6.8,50 to 150,> 300,IC50 (T. cruzi epimastigotes; [14]): 44.4 ± 2.5 µM
"CCCCCCCCCCCCCCCCOP(=O)([O-])OCC[N+](C)(C)C [M, Miltefosine, reference compound]",11.1,6.5 ± 0.3,,,72.2 ± 8.9,selectivity ratio [5]: 23.3; IC50 [6]: 3.1 ± 0.3 µM
"Cc1ccc(C(C)C)c(OC(=O)CCC(=O)O)c1 [Derivative 6, thymyl hemisuccinate]",,> 350,,> 350,,
"Cc1ccc(C(C)C)c(OCC(=O)OC(=O)CCl)c1 [Derivative 4, 2-thymyl-2′-(chloro)-acetic anhydride]",0.8,148 ± 10,0.9,124 ± 6,120.9 ± 0.4,
"O=C(Cn1ccnc1[N+](=O)[O-])NCc1ccccc1 [B, Benznidazole, reference compound]",,,58,6.9 ± 0.8,399.9 ± 1.4,selectivity ratio [7]: 148; IC50 (intramacrophage T. cruzi): 2.7 ± 0.4 µM
"Cc1ccc(C(C)C)c(O)c1 [Compound 1, thymol]",> 0.9,318 ± 21.4,> 1.5,206 ± 2.8,> 300,activity against promastigote stage of L. major [8]: inactive; activity against promastigote stage of L. tropica [9]: inactive; IC50 against L. infantum (L. infantum): 7.2 µg/mL; IC50 against L. chagasi (L. chagasi): 28.0 µg/mL; IC50 against L. amazonensis (L. amazonensis): 26.8 µg/mL
"CC(=O)Oc1cc(C)ccc1C(C)C [Derivative 2, thymyl acetate]",,> 350,,> 350,,EC50 against promastigote stage [10]: 9.07 µg/mL; EC50 against amastigote stage [11]: 10.95 µg/mL
"Cc1ccc(C(C)C)c(OC(=O)N(C)C)c1 [Derivative 12, thymyl N,N-dimethyl carbamate]",> 1.3,,> 1.9,,,"IC50 ([2]; Leishmania amazonensis, 72 h, read-out: L. amazonensis Promastigote IC50, promastigotes, alamarBlue, 72 h at 26 °C): 150 to 250 µM; IC50 ([2]; read-out: L. amazonensis Promastigote IC50, promastigotes, alamarBlue, 72 h at 26 °C): 229 ± 21.4 µM; IC50 (T. cruzi epimastigotes; Trypanosoma cruzi, 72 h, read-out: T. cruzi Epimastigote IC50, epimastigotes, alamarBlue, 72 h at 26 °C): 150 to 250 µM; IC50 (T. cruzi epimastigotes; read-out: T. cruzi Epimastigote IC50, epimastigotes, alamarBlue, 72 h at 26 °C): 158 ± 2.9 µM; CC50 ([4]; murine macrophages J774.A1): > 300 µM"
"Cc1ccc(C(C)C)c(OC(=O)CCl)c1 [Derivative 3, thymyl chloroacetate]",> 3.8,,> 6.1,,,"IC50 ([2]; Leishmania amazonensis, promastigotes, alamarBlue, 72 h at 26 °C, read-out: L. amazonensis Promastigote IC50): 78.8 ± 15.9 µM; IC50 (T. cruzi epimastigotes; Trypanosoma cruzi, epimastigotes, alamarBlue, 72 h at 26 °C, read-out: T. cruzi Epimastigote IC50): 49.5 ± 3.2 µM; CC50 ([4]; murine macrophages J774.A1): > 300 µM"
"Cc1ccc(C(C)C)c(OC(=O)c2ccccc2)c1 [Derivative 7, thymyl benzoate]",> 5.4,56 ± 5.6,> 4.5,66 ± 1.7,> 300,EC50 against promastigote stage [10]: 8.67 µg/mL; EC50 against amastigote stage [11]: 15.09 µg/mL
"CCCC(=O)Oc1cc(C)ccc1C(C)C [Derivative 5, thymyl butyrate]",> 1.4,150 to 250,> 1.4,150 to 250,> 300,"IC50 ([2]; promastigotes, alamarBlue, 72 h at 26 °C, read-out: L. amazonensis Promastigote IC50): 216 ± 7.5 µM; IC50 (T. cruzi epimastigotes; [14]): 211 ± 7.3 µM"
"Cc1ccc(C(C)C)c(OC(=O)Oc2ccc([N+](=O)[O-])cc2)c1 [Derivative 11, thymyl-4-nitrophenylcarbonate]",> 5.2,56.9 ± 7.2,> 4.5,66.9 ± 3.8,> 300,
